Laboratory results reported in patent US20240207265A1, “TREATMENT OF CNS DISEASES WITH sGC STIMULATORS” (Tisento Therapeutics Inc., priority 2021, published 2024).

Experiments:
normotensive rats = test: Blood pressure effects in normotensive rats after acute oral dose; format: in vivo, rat; details: for Peak ΔVMAP (mm Hg): sodium salt in Milli-Q water, vehicle-adjusted MAP; for Time at Peak: time of peak ΔVMAP
From the text: Male, normotensive Sprague Dawley rats were purchased from Charles River Laboratories. These rats have indwelling femoral artery catheters installed. Animals were harnessed to a tether system and attached to pressure transducers to monitor cardiovascular (CV) parameters, specifically mean arterial pressure (MAP) and heart rate (HR). Animals were acclimated to the system overnight and baseline CV parameters collected. […] A blood sample was collected from each animal through the catheter line at pre-dose and 2 hours post-dose for compound concentration quantification. Hemodynamic measures were recorded for ten hours post-dose. Fifty-four male rats were used for these studies and they were ordered to be received at a body weight range of 250-275 grams. They were single housed under controlled conditions of temperature (21±1° C.), relative humidity (36±1%) and placed in a 12-hr light-dark cycle (lights on at 6:00 AM and off at 6:00 PM) room at SmartLabs vivarium (21 Erie Street, Cambridge, MA) under protocol MIL-110. Animals were allowed ad libitum access to chow (LabDiet Prolab Isopro RMH 3000, St. Louis, MO) and water. Two sets of studies were carried out. […] […] Formulations prepared were thawed less than 4 hours before dosing and stored at room temperature or were made less than 2 hours before dosing and stored at room temperature.
This study utilized ADInstruments LabChart (v8) to collect hemodynamic data from conscious, freely moving rats tethered to a blood pressure transducer (Harvard Apparatus cat #APT300). Following an overnight acclimation to the tether and pressure transducer, animals were dosed following a 1-hr baseline recording period. Animals were administered a single oral (P.O.) dose of the sodium salt form of Compound I-14 or vehicle at a dose volume of 10 mL/kg. Data collection was continued for 10 hours post-dose.
ADInstruments LabChart (v8) was used to monitor and export hemodynamic data. Blood pressure and heart rate were continuously monitored, and data were collected at 1000 data points per second then averaged into 10-minute bins for analysis. Change from baseline MAP (ΔBMAP) and HR (ΔBHR) were calculated using the pre-dose baseline averaged over the 1-hr period prior to dosing using Microsoft Excel for Microsoft 365. This 10-minute bin dataset was used to determine peak ΔVMAP, time peak ΔVMAP, peak ΔVHR and time of peak ΔVHR. The dataset was further consolidated into 1-hr bins for the MAP and HR figures and the analysis of ΔBMAP, ΔBMAP, and ΔBHR. The definitions of these terms/abbreviations are summarized below:
Statistical analyses were performed in Graphpad Prism (v8). Significance, as compared to vehicle-treated rats, for ΔBMAP and ΔBHR data was determined by 2-way repeated measures ANOVA followed by a Dunnett's multiple comparisons test, if there was a missing data point, a mixed-effect analysis was utilized. Vehicle-adjusted MAP (ΔVMAP) was calculated by subtracting ΔBMAP of the vehicle group from the ΔBMAP of each dose group at each timepoint. Vehicle-adjusted HR (ΔVHR) was calculated in a similar manner to ΔVMAP.
Analogous studies to the ones described above were carried out with Compound I-20. […] A blood sample was collected from each animal through the catheter line at pre-dose and 2 hours post-dose for compound concentration quantification. Hemodynamic measures were recorded for ten hours post-dose.

[1] = tested on: MK-801-induced memory deficit; test: Novel Object Recognition (NOR) test, MK-801-induced memory disruption; format: in vivo, rat; details: for Recognition Index vs Vehicle-MK-801 group: 1 mg/kg PO 60 min prior to training, MK-801 0.1 mg/kg; for side effects in NOR study: any dose tested, oral, Long Evans rats
Experimental: In the present study, a memory saving model was used. MK-801 (Dizocilpine), an uncompetitive antagonist of the NMDA receptor was used to cause deficit of recognition memory. sGC stimulators were evaluated for their efficacy to prevent memory impairment induced by MK-801.
Adult male Long-Evans rats (275-299 gram at arrival from Envigo, Indianapolis, IN) were used in this study. Rats were placed in the experimental rooms and assigned unique identification numbers (tail marks). Rats were housed 2 per cage in polycarbonate cages with filter tops and acclimated for at least 7 days prior to testing. Animal room was maintained in a 12/12 h light/dark cycle (lights on at 07.00 EST), 22±1° C. and relative humidity at approximately 50%. Food and water were provided ad libitum. All animals were examined, handled and weighed prior to the study to assure adequate health and to minimize the non-specific stress associated with testing. Each animal was randomly assigned across the treatment groups. The experiments were conducted during the animal's light cycle phase.
MK-801 (0.1 mg/kg; Sigma-Aldrich) was dissolved in saline and injected IP, 15 min prior to NOR training. The dose volume was 1 ml/kg.
Galantamine (1 mg/kg; Tocris) was dissolved in saline and injected IP, 15 minutes prior to training. The dose volume was 1 ml/kg.
Compound I-20 (0.03, 0.3 and 1 mg/kg) was formulated in vehicle (0.5% (w/w) methyl cellulose and 0.5% (w/w) Tween 80 in ultrapure water) and orally dosed 60 min prior to NOR training at 2 ml/kg dose volume.
Compound I-14 (0.01, 0.1 and 1 mg/kg) was formulated as its Na+ salt as a solution in MilliQ water and stored as frozen aliquots. The aliquots of compound solutions and compound vehicle were stored in −80° C. and freshly thawed on each testing day. The compound and vehicle were orally dosed 60 minutes prior to NOR training. The dose volume was 10 ml/kg.
NOR test was conducted in an open-field arena (40×40 cm) placed in a sound-attenuated room under dimmed lighting. Each rat was tested separately, and care was taken to remove olfactory/taste cues by cleaning the arena and test objects with 70% alcohol between trials and rats. All training and testing trials were video-taped and scored by an observer blind to treatments.
On Days 1 and 2, rats were allowed to freely explore the arena (no objects inside) for a 5-minute habituation period. On Day 3 (training and testing day), rats were administered vehicle, saline and/or compound solution according to corresponding pretreatment, which is defined as time between injection and start of NOR training. Each animal was placed into the test arena in the presence of two identical objects. Each rat was placed in the arena facing the same direction at the same position, and the time spent actively exploring the objects during a 3-minute training period (T1) was recorded. The rat was returned to its home cage following training. NOR test (T2) was conducted 1 hour after T1. Each rat was placed back into the test arena in the presence of one familiar object and one novel object for 5 minutes, and the time spent exploring both objects was recorded. […]
Data of NOR test (T2) were expressed as Recognition Index, which is defined as the ratio of the time spent exploring the novel object over the total time spent exploring both objects (Novel/(Familiar+Novel)×100%) during the test session.
For Compound I-14, data were analyzed in two batches separately. […] Data were analyzed with t-test to evaluate the validity of the test. […]

## Oc1nc(-c2cn3ccnc3c(Cc3cccc(F)c3F)n2)ncc1F [Compound I-4, 2-(8-(2,3-Difluorobenzyl)imidazo[1,2-a]pyrazin-6-yl)-5-fluoropyrimidin-4-ol]
Normotensive rats; formulated in PEG400, 10 mg/kg
  maximal reduction of MAP from baseline (ΔBMAP): 20 mm Hg
  time after dosing of maximal/peak ΔBMAP: 50 min

## Cc1cc(F)c(Cc2nc(-c3ncc(F)c(O)n3)cn3ccnc23)cc1F [Compound I-14, 5-fluoro-2-(8-(2,5-difluoro-4-methylbenzyl)imidazo[1,2-a]pyrazin-6-yl)pyrimidin-4-ol]
[1]; 0-1 minute time range
  Recognition Index vs Vehicle-MK-801 group: reversed the deficit
[1]; 0-3 minute time range
  Recognition Index vs Vehicle-MK-801 group: trend (P<0.10) in reversing MK-801-induced memory deficit
[1]; 0-5 minute time range
  Recognition Index vs Vehicle-MK-801 group: significantly higher Recognition Index
[1]
  side effects in NOR study: None of the rats in this study showed obvious side effects at any dose
Normotensive rats; 1 mg/kg single oral dose
  Peak ΔVMAP (mm Hg): −6.2 mm Hg
  Time at Peak: 90 min
Normotensive rats; 3 mg/kg single oral dose
  Peak ΔVMAP (mm Hg): −10.1 mm Hg
  Time at Peak: 70 min
Normotensive rats; 10 mg/kg single oral dose
  Peak ΔVMAP (mm Hg): −22.3 mm Hg
  Time at Peak: 30 min
Normotensive rats; 30 mg/kg single oral dose
  Peak ΔVMAP (mm Hg): −24.4 mm Hg
  Time at Peak: 30 min
Normotensive rats; single oral dose 3, 10, and 30 mg/kg
  effect on MAP from baseline and as adjusted from vehicle: lowered MAP from baseline and as adjusted from vehicle
Normotensive rats; single oral dose, main effect analysis, simple effects analysis and AOC
  no effect dose on ΔBMAP: 1 mg/kg

## Oc1nc(-c2cn3ccnc3c(Cc3cc(F)ccc3F)n2)ncc1F [Compound I-20, 5-fluoro-2-(8-(2,5-difluorobenzyl)imidazo[1,2-a]pyrazin-6-yl)pyrimidin-4-ol]
[1]
  side effects in NOR study: None of the rats in this study showed obvious side effects at any dose
Normotensive rats; 1 mg/kg single oral dose
  Peak ΔVMAP (mm Hg): −14.3 mm Hg
  Time at Peak: 20 min
Normotensive rats; 3 mg/kg single oral dose
  Peak ΔVMAP (mm Hg): −19.2 mm Hg
  Time at Peak: 20 min
Normotensive rats; 10 mg/kg single oral dose
  Peak ΔVMAP (mm Hg): −20.2 mm Hg
  Time at Peak: 30 min
Normotensive rats; 30 mg/kg single oral dose
  Peak ΔVMAP (mm Hg): −38.1 mm Hg
  Time at Peak: 30 min
Normotensive rats; formulated in PEG400, 10 mg/kg
  peak ΔBMAP: −26 mm Hg
  time after dosing of maximal/peak ΔBMAP: 42 min
